We go through three molecules from patent US4748161A, “Triterpenyl esters of organic acids and hypolipidemic agents composed of them” (Amano Pharmaceutical Co., Ltd., priority 1984, dated 1988).

This assay relates to serum lipids and serum lipid hydroperoxide. Description: Pharmacological test method A for anti-hyperlipidemic activity (serum lipids, 2 weeks feeding). It is filed as in vivo, male Wistar strain rats. The note with it: for AI [(TC - HDL-C)/(HDL-C)] / HDL-C in serum / LPO in serum / PL in serum / TC in serum / TG in serum: 1% in hyperlipidemic diet, 2 weeks; for AI % of diff. / AI Diff. / HDL-C % of diff. / HDL-C Diff. / LPO % of diff. / LPO Diff. / PL % of diff. / PL Diff. / TC % of diff. / TC Diff. / TG % of diff. / TG Diff.: versus control group. In short, it runs like this:
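Male Wistar rats (100±lg, 10 per group) fed 10 g/day for 2 weeks of a 1% cholesterol/0.5% cholic acid diet, test groups with 1% each of cycloartenol, 24-methylenecycloartanol and cyclobranol. After 16 h fast, aortic blood serum assayed enzymatically/colorimetrically for TC, HDL-C, TG, PL, LPO.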

For the molecule `COc1cc(C=CC(=O)OC2CCC34CC35CCC3(C)C(C(C)CCC(C)=C(C)C)CCC3(C)C5CCC4C2(C)C)ccc1O` (stereo not drawn) [Example 100-2, cyclobranyl-4-hydroxy-3-methoxycinnamate], the “AI [(TC - HDL-C)/(HDL-C)]” value was 0.772, the HDL-C in serum turned out to be 94.1 mg/dL, the LPO in serum worked out at 1.59 nmol/mL and the PL in serum came to 143.0 mg/dL. Further, the TC in serum amounted to 166.7 mg/dL, the TG in serum stood at 21.6 mg/dL, the “AI % of diff.” value is -49.1% and the “AI Diff.” value is given as -0.745. The “HDL-C % of diff.” value was “+18.5%”, the “HDL-C Diff.” value is given as “+15.1 mg/dl”, the “LPO % of diff.” value was -29.8% and the “LPO Diff.” value was -0.68 nmol/mL. For the same molecule, the “PL % of diff.” value is reported as -17.6%, the “PL Diff.” value was -30.6 mg/dL, the “TC % of diff.” value was -18.7% and the “TC Diff.” value is -38.4 mg/dL. The “TG % of diff.” value is recorded as -37.0% and the “TG Diff.” value was -12.7 mg/dL.
As for `CC(C)=C(C)CCC(C)C1CCC2(C)C3CCC4C(C)(C)C(OC(=O)c5cccnc5)CCC45CC35CCC12C` (stereo not drawn) [Example 50, cyclobranylnicotinate], the “AI [(TC - HDL-C)/(HDL-C)]” value is reported as 0.697, the HDL-C in serum is 95.7 mg/dL, the LPO in serum is 1.87 nmol/mL and the PL in serum was found to be 138.8 mg/dL. Further, the TC in serum came to 162.4 mg/dL, the TG in serum stood at 34.7 mg/dL, the “AI % of diff.” value is listed as -43.0% and the “AI Diff.” value was -0.525. For the same molecule, the “HDL-C % of diff.” value came out at 10.6%, the “HDL-C Diff.” value is on record as “+9.2 mg/dl”, the “LPO % of diff.” value is -16.7% and the “LPO Diff.” value was -0.37 nmol/mL. Also, the “PL % of diff.” value is recorded as -19.6%, the “PL Diff.” value is -33.8 mg/dL, the “TC % of diff.” value is on record as -15.5% and the “TC Diff.” value was -29.8 mg/dL. Further, the “TG % of diff.” value is reported as -4.3% and the “TG Diff.” value was -1.6 mg/dL.
Turning to `COc1ccccc1C(=O)OC1CCC23CC24CCC2(C)C(C(C)CCC=C(C)C)CCC2(C)C4CCC3C1(C)C` (stereo not drawn) [Example 13, cycloartenyl-o-methoxybenzoate], the “AI [(TC - HDL-C)/(HDL-C)]” value is recorded as 1.388, the HDL-C in serum amounted to 60.5 mg/dL, the LPO in serum was 1.94 nmol/mL and the PL in serum stood at 122.8 mg/dL. Further, the TC in serum was determined as 144.5 mg/dL, the TG in serum worked out at 26.2 mg/dL, the “AI % of diff.” value is on record as -21.4% and the “AI Diff.” value is given as -0.379. The “HDL-C % of diff.” value is given as “+0.5%”, the “HDL-C Diff.” value is “+0.3 mg/dl”, the “LPO % of diff.” value is -23.3% and the “LPO Diff.” value was -0.59 nmol/mL. Also, the “PL % of diff.” value was -10.2%, the “PL Diff.” value was -13.9 mg/dL, the “TC % of diff.” value is reported as -13.3% and the “TC Diff.” value is -22.1 mg/dL. Also, the “TG % of diff.” value is -3.7% and the “TG Diff.” value is -1.0 mg/dL.
